Source: patent publication US20080031866A1, “METHOD FOR MODULATING THE PHARMACOKINETICS AND METABOLISM OF A THERAPEUTIC AGENT” (priority 2006, published 2008)

How the values were obtained:
[1] = Intraduodenal dosing with and without β-glucuronidase, catheterized rat; assay type: in vivo; details: for Increase in AUC with β-glucuronidase: with vs no enzyme; for AUC / Cmax / concentration at 0 h / concentration at 0.25 h / concentration at 0.5 h / concentration at 1 h / concentration at 2 h / concentration at 3 h / concentration at 4 h / concentration at 5 h / concentration at 6 h / AUC average ± standard deviation 0 to 6 hours / Cmax average ± standard deviation: 10 mg/kg, rats N=6; for AUC: read-out: AUC average ± standard deviation 0 to 6 hours; for Cmax: read-out: Cmax average ± standard deviation; for concentration at 0 h / concentration at 0.25 h / concentration at 0.5 h / concentration at 1 h / concentration at 2 h / concentration at 3 h / concentration at 4 h / concentration at 5 h / concentration at 6 h: other: intraduodenal
Experimental: (§1) A catheterized rat model was used in which the agent alone or agent and β-glucuronidase enzyme was administered intraduodenally or intracolonically. The intraduodenal and intracolonic dosing was intended to prevent the potential for loss of enzymatic activity when orally dosing the β-glucuronidase (e.g. by degradation in the stomach). […]
(§2) For the oral gavage dosing, Compound 1 was prepared in neat PEG-400. For the intraduodenal and intracolonic dosing solutions, Compound 1 was added to neat Tween 80, the mixture was sonicated for thirty minutes at 45° C. until Compound 1 was completely dissolved and then deionized (DI) water was added to form a solution consisting of 20% Tween 80 and 80% DI water by weight.
(§3) For the oral enzyme solutions, β-glucuronidase was added to the final formulation at a concentration of 57,600 units/ml.
(§4) For the intraduodenal and intracolonic dosing, male Sprague Dawley rats weighing 300-400 g were purchased from Charles River Labs. All rat experiments were conducted under approved animal protocols. The rats were catheterized at Charles River Labs and had one or more of the following chronic catheters for dosing and sampling: jugular/carotid, duodenal, and colonic. Rats were limited to only one GI catheter and one vascular catheter. For IV dosing, rats were purchased with jugular and carotid catheters for dosing in the jugular catheter and blood sampling through the carotid catheter. For intraduodenal/intracolonic dosing, rats had one of the GI catheters for dosing and a carotid catheter for blood sampling.
(§5) The surgeries were done two weeks prior to start of testing. Rats were fed 4 hours post dose administration. All rats were dosed without anesthesia and sacrificed at the end of the study.
(§6) A quantitative method for determining the amount of (6,7-dimethoxy-2,4-dihydro-indeno[1,2-c]pyrazol-3-yl)-(3-fluoro-phenyl)-amine Compound 1 and its major metabolites, glucuronide A (Cpd 1-GluA) and glucuronide B (Cpd 1-GluB) (see Scheme A) in rat plasma was developed using phenacetin as an internal standard. [drawing 1]
(§7) The two glucuronide conjugates were prepared and purified to permit accurate quantification of the levels of intact parent Compound 1 versus Cpd 1-GluA and Cpd 1-GluB. Each standard curve for Compound 1, Cpd 1-GluA, and Cpd 1-GluB generated from rat plasma included ten concentration levels. […] The quantitative procedure for each sample included: sample preparation, HPLC separation and mass spectrometry detection.
(§8) The rat plasma was prepared using protein precipitation techniques. Reference standards and quality control samples in rat plasma for Compound 1 were transferred to a 96 deep-well plate. The precipitation solution contained 100 ng/ml of internal standard in acetonitrile. 300 μl of precipitation solution were added to 100 μl of each standard, quality control and plasma sample. Samples were vortexed for 10 mins, then centrifuged at 4500 RPM for 10 mins. 10 μl of each sample were injected for LC/MS/MS analysis.
(§9) The HPLC column chosen for the bioanalysis was purchased from Thermo Electron (Hypersil BetaBasic C18, 5 cm×2.1 mm). The eluting solvents were composed of Solvent A: 0.1% formic acid in H2O and Solvent B: 0.1% formic acid in acetonitrile. A step gradient was used and flow rate was 300 μl/min. The total run time was 3.2 mins. Solvent B was increased from 35% at 0 min to 75% at 2.1 mins and decreased back to 35% at 2.2 mins. The retention times for Compound 1, phenacetin, Cpd 1-GluA and Cpd 1-GluB were 1.1 min, 0.9 min, 1.3 min, and 1.6 min, respectively.
(§10) API3000 with a Turbo Ionspray interface from Applied Biosystems was used for the detection of Compound 1, the internal standard and major metabolites. Electrospray ionization was performed in the positive ion mode heated nebulizer with a temperature of 300° C. LC/MS/MS chromatograms were acquired in MRM (multiple reaction mode). […]

[2] = Intracolonic dosing with and without β-glucuronidase, catheterized rat; assay type: in vivo; details: male, Sprague Dawley, rat, plasma, 10 mg/kg; for Cmax: read-out: Cmax average ± standard deviation; for concentration at 0 h / concentration at 0.25 h / concentration at 0.5 h / concentration at 1 h / concentration at 2 h / concentration at 3 h / concentration at 4 h / concentration at 5 h / concentration at 6 h: other: intracolonic
Experimental: as §1, §2, §3, §4, §5, §6, §7, §8, §9, §10

[3] = male, Sprague Dawley, rat, plasma, Compound 1 10 mg/kg intraduodenal with β-glucuronidase
[4] = male, Sprague Dawley, rat, plasma, Compound 1 10 mg/kg intraduodenal without enzyme
[5] = Compound 1 10 mg/kg intraduodenal with β-glucuronidase
[6] = Compound 1 10 mg/kg intraduodenal without enzyme
[7] = rats N=6, Compound 1 10 mg/kg intracolonic with β-glucuronidase
[8] = rats N=6, Compound 1 10 mg/kg intracolonic without enzyme

## COc1cc2c(cc1OC)-c1n[nH]c(Nc3cccc(F)c3)c1C2 [Compound 1, (6,7-dimethoxy-2,4-dihydro-indeno[1,2-c]pyrazol-3-yl)-(3-fluoro-phenyl)-amine]
[1]; intraduodenal 10 mg/kg
  Increase in AUC with β-glucuronidase: 2.9 fold
[1]; intraduodenal
  Increase in AUC with β-glucuronidase: 294%
[1]; [3]
  AUC: 177 ± 55 ng·h/mL
  Cmax: 129 ± 41 ng/mL
  concentration at 0 h: 0 ng/mL
  concentration at 0.25 h: 129 ± 41.4 ng/mL
  concentration at 0.5 h: 107 ± 26.6 ng/mL
  concentration at 1 h: 75.6 ± 35 ng/mL
  concentration at 2 h: 21.2 ± 12.5 ng/mL
  concentration at 3 h: 12.9 ± 4.3 ng/mL
  concentration at 4 h: 9.5 ± 3.1 ng/mL
  concentration at 5 h: 3.7 ± 6.3 ng/mL
  concentration at 6 h: 1.7 ± 2.7 ng/mL
[1]; [4]
  AUC: 60 ± 18 ng·h/mL
  Cmax: 75 ± 30 ng/mL
  concentration at 0 h: 0 ng/mL
  concentration at 0.25 h: 75.2 ± 30.3 ng/mL
  concentration at 0.5 h: 55.1 ± 15.5 ng/mL
  concentration at 1 h: 18.7 ± 5.9 ng/mL
  concentration at 2 h: 3.2 ± 0.6 ng/mL
  concentration at 3 h: 1.5 ± 0.9 ng/mL
  concentration at 4 h: 1.6 ± 0.7 ng/mL
  concentration at 5 h: 0 ng/mL
  concentration at 6 h: 0 ng/mL
[1]; male, Sprague Dawley, rat, plasma, intraduodenal 10 mg/kg, unchanged with or without enzyme
  Tmax: 30 min
[1]; [5]
  AUC average ± standard deviation 0 to 6 hours: 177.4 ± 55.3 ng·h/mL
  Cmax average ± standard deviation: 129.4 ± 41.1 ng/mL
[1]; [6]
  AUC average ± standard deviation 0 to 6 hours: 60.3 ± 17.8 ng·h/mL
  Cmax average ± standard deviation: 76.0 ± 29.0 ng/mL
[2]; rats N=6, Compound 1 10 mg/kg intracolonic with β-glucuronidase, read-out: AUC average ± standard deviation 0 to 6 hours
  AUC: 9.5 ± 2.5 ng·h/mL
[2]; [7]
  Cmax: 4 ± 0.6 ng/mL
  concentration at 0 h: 0 ng/mL
  concentration at 0.25 h: 129 ± 41.4 ng/mL
  concentration at 0.5 h: 107 ± 26.6 ng/mL
  concentration at 1 h: 75.6 ± 35 ng/mL
  concentration at 2 h: 21.2 ± 12.5 ng/mL
  concentration at 3 h: 12.9 ± 4.3 ng/mL
  concentration at 4 h: 9.5 ± 3.1 ng/mL
  concentration at 5 h: 3.7 ± 6.3 ng/mL
  concentration at 6 h: 1.7 ± 2.7 ng/mL
[2]; rats N=6, Compound 1 10 mg/kg intracolonic without enzyme, read-out: AUC average ± standard deviation 0 to 6 hours
  AUC: 15.5 ± 24.9 ng·h/mL
[2]; [8]
  Cmax: 9.5 ± 17.9 ng/mL
  concentration at 0 h: 0 ng/mL
  concentration at 0.25 h: 6.4 ± 11.5 ng/mL
  concentration at 0.5 h: 8 ± 15.7 ng/mL
  concentration at 1 h: 8.7 ± 18.2 ng/mL
  concentration at 2 h: 2 ± 3.1 ng/mL
  concentration at 3 h: 1.1 ± 2.7 ng/mL
  concentration at 4 h: 0 ng/mL
  concentration at 5 h: 0 ng/mL
  concentration at 6 h: 0 ng/mL
[2]; with and without β-glucuronidase, read-out: AUC of parent after intracolonic administration
  AUC: < 16 ng·h/mL
